Assay results published in ChEMBL document CHEMBL1201862, “PubChem BioAssay data set” (2004).
The source made the active and inactive calls.

Tests used:
[1] = molecular target: T1, Sentrin-specific protease 1 (Homo sapiens, UniProt Q9P0U3); assay: SENP1 catalytic domain blockers, concentration series – biochemical, kinetic FRET, dose response (AID 651697); format: functional; settings: read-out: IC50_Mean
T1 sequence (Q9P0U3 whole entry): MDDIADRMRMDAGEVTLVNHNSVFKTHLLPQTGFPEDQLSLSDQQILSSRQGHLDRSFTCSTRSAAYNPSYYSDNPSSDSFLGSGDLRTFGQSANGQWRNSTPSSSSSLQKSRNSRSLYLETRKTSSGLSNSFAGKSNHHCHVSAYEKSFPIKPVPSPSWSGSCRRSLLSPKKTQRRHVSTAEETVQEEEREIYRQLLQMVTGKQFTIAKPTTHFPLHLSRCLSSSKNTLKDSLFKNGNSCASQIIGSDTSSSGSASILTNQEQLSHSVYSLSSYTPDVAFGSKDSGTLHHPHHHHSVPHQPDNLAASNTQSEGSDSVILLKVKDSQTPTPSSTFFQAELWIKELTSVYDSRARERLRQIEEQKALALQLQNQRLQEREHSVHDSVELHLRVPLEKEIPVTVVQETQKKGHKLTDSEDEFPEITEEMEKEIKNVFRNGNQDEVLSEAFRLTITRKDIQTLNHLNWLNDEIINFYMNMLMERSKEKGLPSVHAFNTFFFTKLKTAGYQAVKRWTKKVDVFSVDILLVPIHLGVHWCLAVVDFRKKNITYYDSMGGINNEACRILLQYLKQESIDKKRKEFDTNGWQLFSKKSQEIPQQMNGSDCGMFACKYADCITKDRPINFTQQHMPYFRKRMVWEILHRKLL

[2] = molecular target: T1, Sentrin-specific protease 1; assay: Dose response confirmation of small molecule inhibitors of the catalytic domain of the SUMO protease, SENP1 in a FRET assay.; format: functional; settings: read-out: IC50_Mean
[3] = molecular target: T2, Replicative DNA helicase DnaB (Mycobacterium tuberculosis, UniProt P9WMR3); assay: DnaB intein splicing inhibitors, dose response, biochemical, cell-free fluorescence (AID 449749); format: functional
T2 sequence (P9WMR3 whole entry): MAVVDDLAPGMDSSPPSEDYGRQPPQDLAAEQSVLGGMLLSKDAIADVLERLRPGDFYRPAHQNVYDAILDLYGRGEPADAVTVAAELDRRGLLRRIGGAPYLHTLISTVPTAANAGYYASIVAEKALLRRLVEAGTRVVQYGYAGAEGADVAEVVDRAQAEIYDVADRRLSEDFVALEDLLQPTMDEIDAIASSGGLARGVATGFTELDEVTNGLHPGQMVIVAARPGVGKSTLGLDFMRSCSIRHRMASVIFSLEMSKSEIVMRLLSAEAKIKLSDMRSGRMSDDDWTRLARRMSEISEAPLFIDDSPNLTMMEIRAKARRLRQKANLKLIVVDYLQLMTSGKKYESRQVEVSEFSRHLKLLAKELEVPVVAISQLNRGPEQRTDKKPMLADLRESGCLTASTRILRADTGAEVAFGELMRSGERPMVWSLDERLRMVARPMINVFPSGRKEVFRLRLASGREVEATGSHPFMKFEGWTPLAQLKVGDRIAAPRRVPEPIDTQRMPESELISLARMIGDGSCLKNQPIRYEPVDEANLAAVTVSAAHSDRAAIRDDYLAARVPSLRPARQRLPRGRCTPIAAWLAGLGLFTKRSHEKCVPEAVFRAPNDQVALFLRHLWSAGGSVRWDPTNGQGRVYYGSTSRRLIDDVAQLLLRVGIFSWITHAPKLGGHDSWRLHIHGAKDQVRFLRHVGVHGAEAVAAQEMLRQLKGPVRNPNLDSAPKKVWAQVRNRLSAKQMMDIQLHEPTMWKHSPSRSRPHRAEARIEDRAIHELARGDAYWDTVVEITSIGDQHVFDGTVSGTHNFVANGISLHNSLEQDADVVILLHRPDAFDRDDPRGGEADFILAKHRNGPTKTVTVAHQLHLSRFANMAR

Protein RecA = molecular target: T3, Protein RecA (Mycobacterium tuberculosis, UniProt P9WHJ3); assay: Fluorescence Cell-Free Homogeneous Dose Retest to Identify Inhibitors of RecA-Intein Splicing Activity. [Related pubchem assays (depositor defined):AID2097, AID2223, AID489010, AID492950]; format: functional
T3 sequence (P9WHJ3 whole entry): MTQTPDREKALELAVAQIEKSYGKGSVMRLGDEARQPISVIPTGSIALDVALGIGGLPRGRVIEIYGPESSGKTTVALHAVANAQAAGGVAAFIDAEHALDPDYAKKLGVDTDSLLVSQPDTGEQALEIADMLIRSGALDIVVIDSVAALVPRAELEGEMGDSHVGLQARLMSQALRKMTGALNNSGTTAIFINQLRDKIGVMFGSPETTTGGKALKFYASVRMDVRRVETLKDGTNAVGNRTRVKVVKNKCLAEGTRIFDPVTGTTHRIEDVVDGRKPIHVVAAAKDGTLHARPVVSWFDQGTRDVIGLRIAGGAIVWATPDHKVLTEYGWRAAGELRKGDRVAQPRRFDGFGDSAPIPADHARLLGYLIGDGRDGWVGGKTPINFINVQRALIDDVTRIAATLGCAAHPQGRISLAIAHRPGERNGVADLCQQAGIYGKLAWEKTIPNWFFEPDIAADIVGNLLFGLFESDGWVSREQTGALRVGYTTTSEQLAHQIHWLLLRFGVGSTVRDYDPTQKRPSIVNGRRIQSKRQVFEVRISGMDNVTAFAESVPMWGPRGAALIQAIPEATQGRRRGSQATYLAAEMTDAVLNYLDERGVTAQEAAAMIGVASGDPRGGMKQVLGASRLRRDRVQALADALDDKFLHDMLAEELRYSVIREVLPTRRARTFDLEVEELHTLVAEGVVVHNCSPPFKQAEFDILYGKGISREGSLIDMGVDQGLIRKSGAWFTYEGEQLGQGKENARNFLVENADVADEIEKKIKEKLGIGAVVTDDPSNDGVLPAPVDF

[4] = molecular target: T4, Probable nicotinate-nucleotide adenylyltransferase (Staphylococcus aureus (strain N315), UniProt P65502); format: functional, Staphylococcus aureus subsp. aureus N315;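 as to IC50 Mean: confirmatory dose-response retesting of NadD inhibitor hits first found in an ultra-high-throughput screen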
[5] = molecular target: T4, Probable nicotinate-nucleotide adenylyltransferase; format: functional, Staphylococcus aureus subsp. aureus N315; settings: read-out: IC50_Mean
[6] = general cell-killing toxicity readout – plate reader, dry powder samples, cytotoxicity control for PAX8 inhibitor project, dose response (AID 743021); format: functional, cell-based
[7] = molecular target: T5, Microphthalmia-associated transcription factor (Homo sapiens, UniProt O75030); assay: reducers of TRPM1 reporter luminescence, concentration series – cell-based, SK-MEL-5, cherry-picked, set 3, MITF inhibitor project, dose response (AID 493073); format: functional;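 also: SK-MEL-5 melanoma cells with luciferase driven by the MITF target TRPM1 promoter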
T5 sequence (O75030 whole entry): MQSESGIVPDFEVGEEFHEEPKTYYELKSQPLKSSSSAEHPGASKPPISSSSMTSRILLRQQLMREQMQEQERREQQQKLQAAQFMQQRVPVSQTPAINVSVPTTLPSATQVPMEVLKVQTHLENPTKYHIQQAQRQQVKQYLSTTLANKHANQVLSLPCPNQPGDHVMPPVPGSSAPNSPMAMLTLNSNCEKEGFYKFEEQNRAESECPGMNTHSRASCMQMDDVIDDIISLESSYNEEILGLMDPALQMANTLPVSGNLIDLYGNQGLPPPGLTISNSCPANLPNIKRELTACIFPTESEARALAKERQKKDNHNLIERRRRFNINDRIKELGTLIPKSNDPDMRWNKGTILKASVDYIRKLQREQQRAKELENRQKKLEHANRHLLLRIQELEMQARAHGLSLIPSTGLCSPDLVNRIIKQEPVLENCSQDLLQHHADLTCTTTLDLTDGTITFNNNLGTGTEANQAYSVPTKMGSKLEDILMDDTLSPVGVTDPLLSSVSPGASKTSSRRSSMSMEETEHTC

Paired box protein Pax-8 = Paired box protein Pax-8 (Homo sapiens, UniProt Q06710); assay: PAX8 transcriptional activity inhibition in RMG-I – RMG-I cells, luciferase, cherry-pick, dose response (AID 687027); format: functional, cell-based;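 also: luciferase reporter driven by Pax8 target thyroperoxidase promoter measured by SteadyGlo luminescence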
Nonstructural protein 1 = Nonstructural protein 1 (Influenza A virus, UniProt Q194T2); format: functional, Influenza A virus (A/California/07/2009(H1N1))
[8] = molecular target: T6, Rac GTPase-activating protein 1 (Homo sapiens, UniProt Q9H0H5); assay: blockers of MgcRacGAP-driven Rac1 GTP hydrolysis – biochemical, ADP Hunter fluorescence, primary and confirmatory, confirmation (AID 624330); format: functional
T6 sequence (Q9H0H5 whole entry): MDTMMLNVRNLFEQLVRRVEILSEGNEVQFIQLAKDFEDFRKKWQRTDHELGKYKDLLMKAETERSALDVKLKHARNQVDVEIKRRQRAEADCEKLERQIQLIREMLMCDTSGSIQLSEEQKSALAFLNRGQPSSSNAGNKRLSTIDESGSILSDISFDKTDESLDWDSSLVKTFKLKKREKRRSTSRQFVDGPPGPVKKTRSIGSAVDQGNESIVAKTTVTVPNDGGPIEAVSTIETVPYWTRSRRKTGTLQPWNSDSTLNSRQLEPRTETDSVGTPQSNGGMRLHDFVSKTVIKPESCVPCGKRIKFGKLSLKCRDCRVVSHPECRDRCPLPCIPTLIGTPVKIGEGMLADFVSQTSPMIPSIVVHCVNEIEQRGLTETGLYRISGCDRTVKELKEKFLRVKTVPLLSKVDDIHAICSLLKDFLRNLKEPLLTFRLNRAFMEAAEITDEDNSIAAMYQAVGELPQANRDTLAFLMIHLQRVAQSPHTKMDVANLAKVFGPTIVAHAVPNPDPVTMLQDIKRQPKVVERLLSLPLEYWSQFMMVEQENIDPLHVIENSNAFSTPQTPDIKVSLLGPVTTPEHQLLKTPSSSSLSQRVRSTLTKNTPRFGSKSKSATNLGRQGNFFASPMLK

[9] = molecular target: Mitochondrial peptide methionine sulfoxide reductase (Bos taurus, UniProt P54149); assay: Absorbance-based biochemical high throughput dose response assay for activators of Methionine sulfoxide reductase A (MsrA).; format: functional
[10] = Fluorescence-based cell-based high throughput dose response assay for inhibitors of the interaction of nucleotide-binding oligomerization domain containing 2 (NOD2) and the receptor-interacting serine-threonine kinase 2 (RIPK2).; format: functional; settings: Homo sapiens
[11] = molecular target: Glucose-6-phosphate 1-dehydrogenase (Homo sapiens, UniProt P11413); assay: inhibition of Homo sapiens G6PD, dose series – biochemical, fluorescence, selectivity assay for P. falciparum G6PD inhibitor project, dose response (AID 504792); format: functional
Beta Lactamase = Beta Lactamase (Pseudomonas aeruginosa, UniProt Q932Y6); assay: BLA reporter interference, concentration series – BLA reporter cells, FRET fluorescence, artefact control for NOD2-RIPK2 interaction inhibitor project, dose response (AID 651552); format: functional, cell-based
Hexokinase = molecular target: T7, Hexokinase (Trypanosoma brucei, UniProt Q38C41); assay: Confirmation assay for inhibitors of Trypanosoma brucei hexokinase 1-Analogue-first series. [Related pubchem assays (depositor defined):AID1430, AID1632, AID2516, AID2560, AID2579, AID2600, AID449725, AID492951]; format: functional
T7 sequence (Q38C41 whole entry): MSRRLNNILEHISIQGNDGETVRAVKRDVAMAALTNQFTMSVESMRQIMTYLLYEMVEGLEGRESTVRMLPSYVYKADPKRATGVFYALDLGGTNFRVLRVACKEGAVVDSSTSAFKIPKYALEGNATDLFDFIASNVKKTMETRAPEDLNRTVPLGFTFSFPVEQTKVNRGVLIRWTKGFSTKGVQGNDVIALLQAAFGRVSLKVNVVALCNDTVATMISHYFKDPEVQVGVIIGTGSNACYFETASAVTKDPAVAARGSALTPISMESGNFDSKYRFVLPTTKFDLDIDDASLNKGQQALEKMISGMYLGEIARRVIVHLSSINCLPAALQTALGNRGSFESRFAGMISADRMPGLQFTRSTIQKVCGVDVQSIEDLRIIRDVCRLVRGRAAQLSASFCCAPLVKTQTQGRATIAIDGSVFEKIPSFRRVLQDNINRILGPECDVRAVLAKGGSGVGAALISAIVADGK

[12] = molecular target: T8, Carboxy-terminal domain RNA polymerase II polypeptide A small phosphatase 1 (Homo sapiens, UniProt Q9GZU7); assay: CTDSP1 inhibitors, concentration-response, biochemical, absorbance readout, ultra-high-throughput screen actives (AID 540297); format: functional
T8 sequence (Q9GZU7 whole entry): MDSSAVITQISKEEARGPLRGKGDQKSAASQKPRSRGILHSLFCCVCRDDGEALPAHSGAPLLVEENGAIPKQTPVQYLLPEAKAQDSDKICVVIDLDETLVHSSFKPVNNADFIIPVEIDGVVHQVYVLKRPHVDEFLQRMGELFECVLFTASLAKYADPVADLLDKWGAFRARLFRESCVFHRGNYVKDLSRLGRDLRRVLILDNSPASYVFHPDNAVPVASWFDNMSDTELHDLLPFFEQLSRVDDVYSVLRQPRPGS

[13] = viability loss in CEM21 cells – cell-based, CellTiter-Glo luminescence, cherry-picked, cytotoxicity control for viral fusion inhibitor project, dose response (AID 652042); format: functional;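 also: potency for signal decrease meaning cytotoxicity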
[14] = blockers of HIV-1 envelope-mediated cell-cell fusion – cherry-pick, dose response (AID 652057); format: functional, cell-based

T4 sequence (P65502 whole entry): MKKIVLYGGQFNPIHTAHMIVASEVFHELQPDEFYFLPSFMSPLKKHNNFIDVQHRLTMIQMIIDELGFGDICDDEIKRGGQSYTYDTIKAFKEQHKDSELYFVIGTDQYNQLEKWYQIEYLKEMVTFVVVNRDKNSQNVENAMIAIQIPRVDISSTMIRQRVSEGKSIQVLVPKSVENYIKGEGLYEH
Sequence of Paired box protein Pax-8 (Q06710 whole entry): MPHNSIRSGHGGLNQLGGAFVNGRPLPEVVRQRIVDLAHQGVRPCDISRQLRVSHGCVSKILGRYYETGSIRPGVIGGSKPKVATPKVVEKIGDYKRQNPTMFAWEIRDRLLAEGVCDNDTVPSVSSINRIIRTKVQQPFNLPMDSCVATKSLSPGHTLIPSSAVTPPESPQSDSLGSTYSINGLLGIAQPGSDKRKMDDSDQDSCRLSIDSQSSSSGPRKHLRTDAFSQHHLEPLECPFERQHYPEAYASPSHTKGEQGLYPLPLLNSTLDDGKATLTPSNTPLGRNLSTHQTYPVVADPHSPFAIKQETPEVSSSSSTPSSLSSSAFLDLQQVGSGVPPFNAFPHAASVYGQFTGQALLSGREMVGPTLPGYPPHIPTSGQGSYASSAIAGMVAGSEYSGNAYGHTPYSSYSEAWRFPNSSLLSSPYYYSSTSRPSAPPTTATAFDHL
Sequence of Nonstructural protein 1 (Q194T2 whole entry): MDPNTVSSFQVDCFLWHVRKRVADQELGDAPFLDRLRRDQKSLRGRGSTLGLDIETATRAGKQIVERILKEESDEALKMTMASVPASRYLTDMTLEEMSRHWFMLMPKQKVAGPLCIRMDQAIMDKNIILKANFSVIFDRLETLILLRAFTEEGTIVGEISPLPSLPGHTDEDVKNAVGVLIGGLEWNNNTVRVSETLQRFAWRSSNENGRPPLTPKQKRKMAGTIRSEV
Sequence of Glucose-6-phosphate 1-dehydrogenase (P11413 whole entry): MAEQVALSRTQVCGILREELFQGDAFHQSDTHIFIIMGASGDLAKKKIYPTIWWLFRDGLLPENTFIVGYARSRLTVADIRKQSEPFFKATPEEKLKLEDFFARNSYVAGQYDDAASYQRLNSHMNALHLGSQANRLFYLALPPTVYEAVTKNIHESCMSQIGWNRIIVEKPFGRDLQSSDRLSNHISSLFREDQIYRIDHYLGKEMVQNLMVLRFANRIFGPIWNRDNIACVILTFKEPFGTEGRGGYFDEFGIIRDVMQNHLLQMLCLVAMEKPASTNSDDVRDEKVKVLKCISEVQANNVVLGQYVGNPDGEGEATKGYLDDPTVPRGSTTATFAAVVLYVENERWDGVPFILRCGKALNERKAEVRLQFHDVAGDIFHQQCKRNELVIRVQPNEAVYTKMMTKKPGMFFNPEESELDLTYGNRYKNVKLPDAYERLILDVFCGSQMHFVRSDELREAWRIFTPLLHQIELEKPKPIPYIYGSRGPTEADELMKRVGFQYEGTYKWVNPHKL
Sequence of Beta Lactamase (Q932Y6 whole entry): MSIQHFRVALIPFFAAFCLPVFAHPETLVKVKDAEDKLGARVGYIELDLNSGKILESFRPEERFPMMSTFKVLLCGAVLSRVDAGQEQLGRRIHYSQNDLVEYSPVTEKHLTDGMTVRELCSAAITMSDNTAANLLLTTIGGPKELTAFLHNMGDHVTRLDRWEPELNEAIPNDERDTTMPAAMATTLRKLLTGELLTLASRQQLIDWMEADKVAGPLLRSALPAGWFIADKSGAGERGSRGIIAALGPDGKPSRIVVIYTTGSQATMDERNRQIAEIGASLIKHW
Sequence of Mitochondrial peptide methionine sulfoxide reductase (P54149 whole entry, the tested form may be a part): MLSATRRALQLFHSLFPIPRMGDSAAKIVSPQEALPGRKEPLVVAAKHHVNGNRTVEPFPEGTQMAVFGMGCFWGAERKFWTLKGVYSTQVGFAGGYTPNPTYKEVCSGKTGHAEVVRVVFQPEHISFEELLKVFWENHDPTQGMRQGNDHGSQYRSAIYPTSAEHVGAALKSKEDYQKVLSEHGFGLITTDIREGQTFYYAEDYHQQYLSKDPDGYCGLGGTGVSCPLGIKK

COC(=O)C1=CC(C(=O)c2cccs2)=NN(c2ccc(OC)cc2)C1C(=O)OC (stereo not drawn)
IC50 [1]: 27.9 µM (inactive)
IC50 [2]: 34.5 µM (inactive)

CCn1c(SCC(=O)Nc2nc(-c3ccc(C)cc3)cs2)nnc1-c1ccccc1O
AC50 [3]: 3.46 µM (active)
EC50 (Protein RecA): 174 µM (active)
IC50 [4]: 17.9 µM (active)
IC50 [5]: 41.6 µM (active)

CCS(=O)(=O)c1ccc(N=Nc2ccc(O)c3ncccc23)c(OC)c1
AC50 [6]: 50.2 µM (active)
AC50 [7]: 9.23 µM (active)
AC50 (Paired box protein Pax-8): 1.19 µM (active)
IC50 (Nonstructural protein 1): 9.78 µM (active)

COc1ccc(O)c(/C=N/n2c(-c3ccco3)cs/c2=N\c2cccnc2)c1
IC50 [1]: 49.7 µM (inactive)
IC50 [2]: 23.1 µM (inactive)

O=c1c2ccc(F)cc2sn1-c1ccccc1
IC50 [8]: 36.4 µM (active)
EC50 [9]: > 104 µM (inactive)
IC50 [10]: 5.43 µM (active)
IC50 [11]: 11.8 µM (active)
IC50 (Beta Lactamase): 23.4 µM (inactive)
IC50 (Hexokinase): 2.31 µM (active)

COc1cccc(N2[C@@H](CC(=O)O)c3cc(C(F)(F)F)ccc3S2(=O)=O)c1
IC50 [4]: 17.4 µM (active)
IC50 [5]: 31.7 µM (active)
IC50 [12]: 5.53 µM (active)

C[C@@H]1CN([C@@H](C)CO)C(=O)c2cccc(NC(=O)c3cnccn3)c2O[C@H]1CN(C)Cc1ccc(Cl)c(Cl)c1
AC50 [13]: 49.9 µM (active)
AC50 [14]: 53.4 µM (active)
